This is an account of results in patent US20140128349A1 (Indiana University School of Medicine, priority 2012, published 2014).

“Also recorded” adds a separate entry of the source.

Data set [1] deals with human melanoma cells. Description: Hfg treatment of human melanoma cells. In kind it is cell-based. An excerpt:
(§1) TGFbeta derived from bone fuels melanoma bone metastasis by inducing tumor secretion of pro-metastatic factors that act on bone cells to change the skeletal microenvironment. […] Hfg is active orally and by intraperitoneal injection, and it has completed Phase I clinical trials in cancer patients. It suppresses the phosphorylation and activation of Smad2 and Smad3 by inducting of Smad7. Overexpression of inhibitory Smad7 has been associated with a reduction on invasive capacity in vitro and anchorage-independent growth, and delays subcutaneous tumor growth in nude mice. The present inventors have shown that Smad7 overexpression decreased melanoma bone metastasis, thus is useful for treating and/or preventing muscle weakness and atrophy as well as other muscle related side effects in cancer patients.

Data set [2] has as its system 1205Lu melanoma cells. Description: 1205Lu melanoma metastasis in nude mice. In kind it is in vivo.
From the text: as §1

Data set [3] has as its target T1, RyR1 (Mus musculus, UniProt E9PZQ0). Details: from tissue; host or cells: skeletal muscle of mdx mice. To be noted: mdx model of DMD; cited from earlier work.
In data set [4] the target is T1, RyR1. Details: in a mouse model of aging, oxidation of skeletal muscle RyR1 causes depletion of the stabilizing subunit calstabin1 (FKBP12); from tissue; host or cells: skeletal muscle of aged (2 yr old) mice. As to conditions: mouse model of aging; cited from earlier work.
Data set [5] has as its system RyR. Kind of data set: S107 blood brain barrier crossing and calstabin binding to RyR in brain in vivo. The source says:
Data from heart and soleus muscle are also illustrated.
Cardiac muscle RyR2 is PKA hyperphosphorylated, oxidized, nitrosylated and depleted of calstabin2 in animal models of heart failure (HF) and in the hearts of patients with HF. […] Compounds of formula I-o, which share a common structure with S107, are also expected to have similar activities. This advantage is expected to enhance the ability of the TGFbeta inhibitor to be available to act upon most body tissues for improved effectiveness.

Data set [6] concerns RyR2. To be noted: animals; cited from earlier work.
Data set [7] has as its system RyR. As to conditions: cited from earlier work.
In data set [8] the test system is PC-3 bone metastases. Kind of data set: PC-3 prostate cancer bone metastases in mice. In kind it is in vivo. To be noted: osteolytic model; X-ray, osteolytic lesion area, survival. An excerpt: For all mouse experiments, N=15 for each group of mice for tumors inoculated in the left cardiac ventricle (PC-3) or intratibially (LuCAP23.1) based on power analysis detailed below. Male nude mice are housed in laminar flow isolated hoods with water supplemented with vitamin K and autoclaved mouse chow provided ad libitum. Cells are introduced into mice at 4 wks of age. Animals are anesthetized with ketamine/xylazine and positioned ventral side up.
Multiple modalities of bone imaging including X-ray and μCT are used to longitudinally monitor the bone lesions and confirmed by histology and quantitative histomorphometry as previously described (Dunn et al., 2009; Guise et al., 1996b; Yin et al., 1999). Muscle mass are followed serially in vivo using the Piximus II system (Wiren et al., 2011) and microCT (Manske et al., 2011).

The subject of data set [9] is RyR1. Description: RyR1 oxidation/nitrosylation/calstabin1 immunoblot of EDL from PC-3 tumor bearing mice. As to conditions: mice with prostate cancer metastatic to bone. The format is in vivo. Here is the method:
(§2) In embodiments B and C are shown decreased skeletal muscle cross-sectional area in tumor-bearing mice determined by Micro-CT as described herein. In embodiments D and E are shown decreased body weight (D) and decreased Grip strength (E) in PC-3 tumor bearing mice. […] In embodiment J is shown that RyR1 is oxidized and there is decreased calstabin1 in the RyR1 complex from, skeletal muscle (EDL) from mice with metastatic prostate cancer. RyR1 was immunoprecipitated from 250 μg of EDL homogenate using an anti-RyR antibody (4 μg 5029 Ab), and the immunoprecipitates were separated on SDS-PAGE gels (6% for RyR. 15% for Calstabin). All immunoblots were developed and quantified with the Odyssey system (LI-COR, Inc., Lincoln, Nebr.) using IR labeled anti-mouse and anti-Rabbit IgG (1:10,000 dilution) secondary antibodies. […] Quantification of immunoblots showing the relative nitrotyrosine/SERCA for each group of EDLs tested. *p<0.01 compared to non-cancer controls as analyzed by ANOVA. […]
Quantification of RyR1 skeletal channel nitrosylation, oxidation and phosphorylation by protein kinase A (PKA) are performed as described (Bellinger et al., 2009; Bellinger et al., 2008b).
Quantification of depletion of the channel stabilizing subunit calstabin 1 (FKBP12) from skeletal RyR1 by immunoprecipitation techniques are performed as described (Marx et al., 2000). […]

Data set [10] can be described thus: EDL muscle specific force in mice with PC-3 prostate cancer bone metastases. The format is in vivo. To be noted: hypogonadal mice with PC-3 prostate cancer metastatic to bone. On the procedure: as §2, with “antibodies. Immunoblots developed using anti-RyR (clone 34C, 1:5,000), anti-Cys-NO (1:1000, Sigma, St. Louis, Mo.), anti-DNP (to determine RyR1 oxidation. 1:250), and anticalstabin (1:2500).” for “antibodies.”
S107 is administered in the drinking water at a dose of 50 mg/kg/d, water consumption is monitored and plasma drug levels determined. […]

Data set [11] can be described thus: co-administration of S107 and SD208 in tumor bearing mice. As to conditions: S107 in drinking water about 50 mg/kg/day. The format is in vivo. On the procedure:
For example, administering the TGFbeta kinase inhibitor SD208 prevents oxidation of RyR1 and SERCA in skeletal muscles from tumor bearing mice, thus increasing muscle specific force production and grip strength in these mice. The co-administration of S107 further inhibits SR Ca^2+ leak by reducing the stress-induced depletion of calstabin from the RyR channel complex. […] Thus, when these are co-administered, the benzothiazepine derivative is administered at a dosage of between about 20 mg/kg/day and about 100 mg/kg/day and the inhibitor is administered in an amount of about 10 mg/kg/day and about 50 mg/kg/day. The ratio of the amount of benzothiazepine derivative to inhibitor in the co-administered formulation should be between 1:1 to 5:1 and preferably 1.3:1 to 2.5:1. Also, the benzothiazepine and inhibitor can be administered at the same time in a single formulation or sequentially if each is present in a separate formulation.

For data set [12], the system named is LuCaP 23.1 human prostate cancer osteoblastic xenograft. Kind of data set: LuCaP 23.1 osteoblastic prostate cancer xenograft in tibia of nude mice. In kind it is in vivo. The source says: Four-week old, male nude mice were inoculated into the tibia with LuCaP 23.1 human prostate cancer osteoblastic xenograft (n=14-15/group).
The conditions of data set [13]: patients with prostate cancer bone metastases, regardless of radiographic phenotype; cited from earlier work.

T1 sequence (E9PZQ0 whole entry): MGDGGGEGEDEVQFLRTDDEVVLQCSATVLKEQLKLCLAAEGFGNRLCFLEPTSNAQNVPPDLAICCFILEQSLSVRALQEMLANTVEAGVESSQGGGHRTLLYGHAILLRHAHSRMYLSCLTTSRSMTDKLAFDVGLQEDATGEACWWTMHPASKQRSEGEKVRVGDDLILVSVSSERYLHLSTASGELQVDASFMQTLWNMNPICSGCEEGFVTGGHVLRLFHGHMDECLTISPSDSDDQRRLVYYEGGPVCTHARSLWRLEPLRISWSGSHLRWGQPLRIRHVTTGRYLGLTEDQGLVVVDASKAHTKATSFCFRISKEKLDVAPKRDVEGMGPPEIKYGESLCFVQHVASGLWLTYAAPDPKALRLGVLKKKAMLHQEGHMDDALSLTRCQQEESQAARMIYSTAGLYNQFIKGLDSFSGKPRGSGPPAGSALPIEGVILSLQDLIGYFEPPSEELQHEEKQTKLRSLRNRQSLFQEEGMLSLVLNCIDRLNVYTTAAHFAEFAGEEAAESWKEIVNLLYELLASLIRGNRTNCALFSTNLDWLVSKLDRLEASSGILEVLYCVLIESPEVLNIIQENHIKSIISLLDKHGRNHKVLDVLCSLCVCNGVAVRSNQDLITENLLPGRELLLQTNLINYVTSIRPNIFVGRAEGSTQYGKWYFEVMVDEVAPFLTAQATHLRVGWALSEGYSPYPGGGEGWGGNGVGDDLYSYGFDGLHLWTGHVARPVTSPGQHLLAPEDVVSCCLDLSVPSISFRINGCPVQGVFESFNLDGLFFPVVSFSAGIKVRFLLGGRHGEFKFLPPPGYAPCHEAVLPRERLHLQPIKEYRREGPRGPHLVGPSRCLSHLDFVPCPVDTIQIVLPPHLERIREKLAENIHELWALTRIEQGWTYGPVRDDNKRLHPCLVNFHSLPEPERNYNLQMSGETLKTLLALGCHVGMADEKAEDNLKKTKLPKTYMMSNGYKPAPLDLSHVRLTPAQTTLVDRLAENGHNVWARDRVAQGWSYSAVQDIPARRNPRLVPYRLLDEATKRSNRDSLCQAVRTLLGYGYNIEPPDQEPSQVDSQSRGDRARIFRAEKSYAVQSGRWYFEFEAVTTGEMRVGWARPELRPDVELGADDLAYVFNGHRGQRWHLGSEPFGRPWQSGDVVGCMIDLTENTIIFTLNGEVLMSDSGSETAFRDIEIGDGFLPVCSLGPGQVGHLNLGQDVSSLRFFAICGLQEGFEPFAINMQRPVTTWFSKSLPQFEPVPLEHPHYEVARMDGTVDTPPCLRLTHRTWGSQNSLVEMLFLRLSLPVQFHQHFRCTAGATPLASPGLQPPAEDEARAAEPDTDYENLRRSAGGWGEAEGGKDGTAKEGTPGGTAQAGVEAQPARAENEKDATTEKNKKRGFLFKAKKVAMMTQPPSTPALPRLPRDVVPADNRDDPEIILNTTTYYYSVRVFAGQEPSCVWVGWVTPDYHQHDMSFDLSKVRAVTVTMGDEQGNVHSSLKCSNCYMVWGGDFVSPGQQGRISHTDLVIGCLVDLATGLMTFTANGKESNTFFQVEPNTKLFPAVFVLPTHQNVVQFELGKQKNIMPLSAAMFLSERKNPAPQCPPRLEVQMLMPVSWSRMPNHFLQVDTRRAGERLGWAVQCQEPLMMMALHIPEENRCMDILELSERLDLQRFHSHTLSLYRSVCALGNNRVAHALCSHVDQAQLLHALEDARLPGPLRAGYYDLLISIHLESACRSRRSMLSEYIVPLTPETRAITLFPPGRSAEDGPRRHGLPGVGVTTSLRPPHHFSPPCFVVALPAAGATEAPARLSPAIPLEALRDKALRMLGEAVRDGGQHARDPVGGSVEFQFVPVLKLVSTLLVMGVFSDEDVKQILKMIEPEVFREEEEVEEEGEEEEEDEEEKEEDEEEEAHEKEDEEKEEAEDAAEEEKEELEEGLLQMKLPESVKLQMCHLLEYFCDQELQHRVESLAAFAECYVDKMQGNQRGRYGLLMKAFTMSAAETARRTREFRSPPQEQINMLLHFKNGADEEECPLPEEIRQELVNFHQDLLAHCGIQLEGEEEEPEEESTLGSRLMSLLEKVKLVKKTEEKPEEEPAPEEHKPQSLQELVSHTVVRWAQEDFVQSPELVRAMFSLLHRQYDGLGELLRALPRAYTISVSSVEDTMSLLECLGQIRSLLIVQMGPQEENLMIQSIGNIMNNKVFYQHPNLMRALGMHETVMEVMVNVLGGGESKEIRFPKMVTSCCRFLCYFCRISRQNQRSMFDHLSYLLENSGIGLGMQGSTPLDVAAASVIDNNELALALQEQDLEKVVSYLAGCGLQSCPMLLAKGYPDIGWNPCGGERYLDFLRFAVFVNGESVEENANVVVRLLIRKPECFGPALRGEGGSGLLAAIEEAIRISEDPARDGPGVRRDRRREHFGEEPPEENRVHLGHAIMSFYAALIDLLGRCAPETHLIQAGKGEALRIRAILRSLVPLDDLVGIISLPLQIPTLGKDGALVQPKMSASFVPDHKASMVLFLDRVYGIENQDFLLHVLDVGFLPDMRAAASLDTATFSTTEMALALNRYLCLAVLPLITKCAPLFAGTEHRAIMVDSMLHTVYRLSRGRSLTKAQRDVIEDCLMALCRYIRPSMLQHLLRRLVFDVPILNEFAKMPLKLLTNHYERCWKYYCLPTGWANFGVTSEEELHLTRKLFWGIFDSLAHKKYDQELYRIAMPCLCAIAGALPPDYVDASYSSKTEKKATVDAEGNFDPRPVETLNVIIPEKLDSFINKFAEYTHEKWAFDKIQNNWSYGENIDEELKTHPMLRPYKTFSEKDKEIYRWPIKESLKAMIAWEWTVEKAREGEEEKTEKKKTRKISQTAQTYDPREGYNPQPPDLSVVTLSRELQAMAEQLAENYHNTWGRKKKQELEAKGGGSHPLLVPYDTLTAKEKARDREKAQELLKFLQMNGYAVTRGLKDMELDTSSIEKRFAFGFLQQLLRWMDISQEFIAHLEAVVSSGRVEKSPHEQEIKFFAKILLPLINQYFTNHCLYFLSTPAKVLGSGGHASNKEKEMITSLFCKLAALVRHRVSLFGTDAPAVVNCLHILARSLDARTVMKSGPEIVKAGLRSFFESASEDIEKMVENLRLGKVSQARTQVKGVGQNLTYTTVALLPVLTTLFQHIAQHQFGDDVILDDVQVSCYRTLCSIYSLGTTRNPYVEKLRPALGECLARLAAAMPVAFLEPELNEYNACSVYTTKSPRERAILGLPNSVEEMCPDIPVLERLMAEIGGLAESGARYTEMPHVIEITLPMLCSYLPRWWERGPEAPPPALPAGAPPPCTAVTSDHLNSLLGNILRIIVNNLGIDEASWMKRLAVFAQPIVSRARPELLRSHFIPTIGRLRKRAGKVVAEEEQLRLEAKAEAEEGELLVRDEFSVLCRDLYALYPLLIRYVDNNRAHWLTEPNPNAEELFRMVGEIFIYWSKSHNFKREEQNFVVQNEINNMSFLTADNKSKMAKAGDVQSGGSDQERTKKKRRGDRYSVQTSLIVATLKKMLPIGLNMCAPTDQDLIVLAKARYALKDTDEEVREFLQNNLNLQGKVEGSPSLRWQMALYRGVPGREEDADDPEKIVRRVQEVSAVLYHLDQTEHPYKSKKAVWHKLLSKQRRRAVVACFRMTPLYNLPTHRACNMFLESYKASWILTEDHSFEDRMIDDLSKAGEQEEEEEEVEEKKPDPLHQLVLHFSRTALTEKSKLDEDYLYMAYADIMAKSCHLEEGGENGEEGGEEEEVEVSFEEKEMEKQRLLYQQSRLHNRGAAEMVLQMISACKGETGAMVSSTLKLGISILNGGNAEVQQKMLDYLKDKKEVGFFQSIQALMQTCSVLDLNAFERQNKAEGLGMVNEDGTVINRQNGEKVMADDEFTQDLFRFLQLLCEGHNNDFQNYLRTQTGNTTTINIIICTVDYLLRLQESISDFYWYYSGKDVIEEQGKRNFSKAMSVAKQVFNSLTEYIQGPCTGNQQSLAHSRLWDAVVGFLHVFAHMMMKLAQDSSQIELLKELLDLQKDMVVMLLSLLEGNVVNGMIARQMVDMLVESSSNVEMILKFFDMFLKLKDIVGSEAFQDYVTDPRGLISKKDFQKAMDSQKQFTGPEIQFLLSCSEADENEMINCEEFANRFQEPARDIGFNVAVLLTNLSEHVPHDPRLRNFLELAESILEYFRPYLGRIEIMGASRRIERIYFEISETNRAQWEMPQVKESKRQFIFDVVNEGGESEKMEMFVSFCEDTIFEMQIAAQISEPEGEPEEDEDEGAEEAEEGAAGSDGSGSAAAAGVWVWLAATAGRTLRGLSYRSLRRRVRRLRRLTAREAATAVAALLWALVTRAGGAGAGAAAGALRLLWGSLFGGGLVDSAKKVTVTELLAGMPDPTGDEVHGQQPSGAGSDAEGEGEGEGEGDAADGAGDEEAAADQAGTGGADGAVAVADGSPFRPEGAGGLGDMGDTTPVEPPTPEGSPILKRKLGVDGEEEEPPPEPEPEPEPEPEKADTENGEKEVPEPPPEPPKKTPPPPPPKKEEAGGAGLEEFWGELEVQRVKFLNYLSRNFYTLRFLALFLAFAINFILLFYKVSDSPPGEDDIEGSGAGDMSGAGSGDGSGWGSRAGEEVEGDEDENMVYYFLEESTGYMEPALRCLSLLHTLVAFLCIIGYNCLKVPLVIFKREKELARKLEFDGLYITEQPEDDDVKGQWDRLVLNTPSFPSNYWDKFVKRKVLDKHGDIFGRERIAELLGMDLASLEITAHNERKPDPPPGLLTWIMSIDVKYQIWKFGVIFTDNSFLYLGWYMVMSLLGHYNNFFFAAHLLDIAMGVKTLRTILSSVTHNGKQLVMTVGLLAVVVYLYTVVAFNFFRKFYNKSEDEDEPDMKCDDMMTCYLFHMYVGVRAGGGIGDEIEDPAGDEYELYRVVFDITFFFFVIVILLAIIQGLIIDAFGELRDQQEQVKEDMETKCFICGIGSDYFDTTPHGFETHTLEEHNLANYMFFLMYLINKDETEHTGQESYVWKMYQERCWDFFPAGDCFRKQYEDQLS
T1 sequence (P26883 2-108 partner limits assumed): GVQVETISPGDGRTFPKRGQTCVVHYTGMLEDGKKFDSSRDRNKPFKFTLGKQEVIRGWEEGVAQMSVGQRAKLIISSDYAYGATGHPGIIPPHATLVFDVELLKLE

Turning to `O=C(CC1NCCCC1O)Cn1cnc2cc(Br)c(Cl)cc2c1=O` (stereo not shown) [Halofuginone], in data set [1], the cell proliferation entry is on record as “inhibited cell proliferation” and the “expression of TGFbeta target genes (PTHrP, CTGF, CXCR4, IL11)” value is “reducing expression of TGFbeta target genes”. For the same compound, in data set [2] (assessed by radiography, vs placebo), the “osteolysis in mice with established bone metastasis” value is “significantly less osteolysis than mice receiving placebo”. The “bone metastasis, preventive protocol” value in data set [2] (nude mice inoculated with 1205Lu melanoma cells) is listed as “inhibited bone metastasis”.
On to `COc1ccc2c(c1)CN(C)CCS2` [S107], for which, in data set [3], the grip strength entry was “improves grip strength” and the muscle damage result was “reduced muscle damage”. For the same compound, in [4], the “SR Ca2+ leak (Ca2+ sparks, channel open probability)” value was “reduced SR Ca^2+ leak”; the exercise capacity entry is “improved”; the muscle force production result is “improved muscle force production”; the “oxidation induced depletion of calstabin1 from RyR1” value is on record as “prevented oxidation induced depletion of calstabin1 from RyR1”. For the same compound, the “tetanic [Ca2+]” value in data set [4] is “increased tetanic [Ca^2+]”. Further, the “crossing of the blood brain barrier” value in data set [5] is on record as “crosses the blood brain barrier”. The “binding of calstabin to RyR in the brain” value in data set [5] (mid-section and cerebellum) is on record as “enhances binding of calstabin to a RyR in the brain”. Further, in data set [6], the HF progression result is recorded as “inhibits HF progression”. Moreover, the specificity result in [7] is on record as “RyR specific”.
For the compound `Fc1ccc(Cl)cc1-c1nc(Nc2ccncc2)c2nccnc2n1` [SD-208], the “prevention of PC-3 bone metastases” value in data set [8] is “highly effective to prevent bone metastases due to PC-3; also recorded: prevents PC-3 bone metastases”. Moreover, the “skeletal muscle RyR1 oxidation, nitrosylation and depletion of calstabin 1” value in data set [9] is recorded as “prevented oxidation/nitrosylation/calstabin1 depletion from RyR1; also recorded: prevented oxidation of RyR1”. The “muscle (EDL) specific force production” value in [10] is “improved muscle specific force production”. Besides, the “effect of oral SD208 about 30 mg/kg/day co-administered with S107” value in [11] is given as “same effects as administering SD208 at a dosage of about 60 mg/kg/day”. The “bone formation and tumor growth in LuCaP 23.1” value in data set [12] (50 or 150 mg/kg/day po, from 12 weeks post inoculation) is on record as “does not increase bone formation or tumor growth”. The “efficacy against LuCAP23.1 bone metastases” value in [12] (osteoblastic model) is on record as “not effective against LuCAP23.1 bone metastases”.
For denosumab: inhibitor of bone resorption, in [13], the skeletal morbidity result is listed as “reduce skeletal morbidity”.
